Assay results reported in publication PMC11274128, “Modification and Synergistic Studies of a Novel Frog Antimicrobial Peptide against Pseudomonas aeruginosa Biofilms” (Antibiotics, 2024).
≈ marks a conversion by molar mass, not a printed value. Like-named read-outs stand apart in the source and are kept apart here. Bridge positions count the residues as written; N and C are the ends. Peptide text beside a SMILES is read from it.

What was measured:
S. aureus (ATCC 6538) = assay: microbe, parasite or virus in culture; format: cell-based, Staphylococcus aureus; settings: planktonic S. aureus ATCC 6538
MRSA (NCTC 12493) = assay: microbe, parasite or virus in culture; format: cell-based, methicillin-resistant Staphylococcus aureus; settings: planktonic MRSA NCTC 12493
A. baumannii (BAA 747) = assay: microbe, parasite or virus in culture; format: cell-based, Acinetobacter baumannii; settings: planktonic A. baumannii BAA 747
A. baumannii BAA 747 = settings: checkerboard MIC, planktonic A. baumannii BAA 747, 37 °C, 24 h, OD 550 nm
Protocol: (§1) The bacteria were cultured, subcultured, diluted, and incubated as the methods of the MIC assay. The pure peptides and antibiotics were weighed and, respectively, dissolved in DMSO and dd water to make the final concentration of 2× MIC. […] Different concentrations of peptide and antibiotic solutions were added to a 96-well plate in the form of a checkerboard grid. The blank control and growth control were still 100 µL medium and 100 µL bacterial culture. The plate was incubated at 37 °C for 24 h. After that, the plate reader was used to monitor the absorbance of each well at 550 nm (The Synergy TM HT, BioTek, Winooski, VT, USA).
(§2) Parameter fractional inhibitory concentration indices (FICIs) were used to evaluate the synergistic effect, and the value of that was calculated as follows:FICI = FICa + FICb FICa = MIC combination peptide/MIC single peptide FICb = MIC combination antibiotic/MIC single antibiotic
(§3) The FICI value was interpreted as “synergy” (FICI ≤ 0.5), “no interaction” (0.5 < FICI ≤ 4), or “antagonism” (FICI > 4).

E. coli ATCC 8739 = settings: checkerboard MIC, planktonic E. coli ATCC 8739, 37 °C, 24 h, OD 550 nm
Protocol: as §1, §2, §3

E. faecalis NCTC 12697 = settings: checkerboard MIC, planktonic E. faecalis NCTC 12697, 37 °C, 24 h, OD 550 nm
Protocol: as §1, §2, §3

K. pneumoniae ATCC 43816 = settings: checkerboard MIC, planktonic K. pneumoniae ATCC 43816, 37 °C, 24 h, OD 550 nm
Protocol: as §1, §2, §3

MRSA NCTC 12493 = settings: checkerboard MIC, planktonic MRSA NCTC 12493, 37 °C, 24 h, OD 550 nm
Protocol: as §1, §2, §3

[1] = test system: P. aeruginosa ATCC CRM 9027; settings: checkerboard MIC, planktonic P. aeruginosa ATCC CRM 9027, 37 °C, 24 h, OD 550 nm
Protocol: as §1, §2, §3

S. aureus ATCC 6538 = settings: checkerboard MIC, planktonic S. aureus ATCC 6538, 37 °C, 24 h, OD 550 nm
Protocol: as §1, §2, §3

[2] = test system: P. aeruginosa ATCC CRM 9027 biofilm; assay: Peptide and antibiotic co-administration MBIC checkerboard assay; format: cell-based, Pseudomonas aeruginosa; settings: 24 h, crystal violet, 595 nm
Source text: The plate was then carefully cleaned under running water.

[3] = test system: A. baumannii BAA 747 biofilm; settings: checkerboard MBIC, 24 h, crystal violet, 595 nm
Protocol: as §2, §3
The bacteria were also cultured, subcultured, diluted, and incubated as the methods of the MBIC assay. All experimental groups were included in a peptide and antibiotic co-administration of MIC assay. To ensure that the mixture was evenly dispersed, the plate was placed in a shaker and incubated for 24 h at 37 and 220× g. The plate was twice rinsed with 200 µL of PBS solution following a 24 h incubation period with peptides and diluted bacterial cultures. Each well received a separate addition of 100 μL of methanol and 0.1% crystal violet solution (Sigma-Aldrich, London, UK), which was left there for 20 min. The plate was then carefully cleaned under running water. Following the drying process, each well received 160 µL of acetic acid (33% in dd water, Sigma-Aldrich, UK). Additionally, the absorbance was measured at λ = 595 nm using the Synergy HT plate reader. FICI values were calculated and identified for our peptide and antibiotic co-administration of MIC assay.

horse red blood cells = horse red blood cells in PBS, 37 °C, 2 h, absorbance 570 nm; positive control 0.1% Triton
Protocol: The pure peptide was dissolved in PBS and then two-fold diluted to obtain a series of concentrations: 512, 256, 128, 64, 32, 16, 8, 4, and 2 μM. A positive control (0.1% Triton) and blank control (PBS) were used. Two millilitres of fresh horse red blood cells were washed in PBS until the supernatant became colourless and clear, and the mixture was then thoroughly mixed. Each mixture contained 100 μL of peptide solution or controls and 100 μL of horse red blood cells, which were then incubated at 37 °C for 2 h and centrifuged at 930× g for 10 min. Subsequently, 100 μL of supernatant from each tube was transferred into a 96-well plate, and the plate reader measured the absorbance at a wavelength of 570 nm. The haemolysis rate was calculated using the following formula:Percentage Haemolysis= (ASample − ABlank)/(APositive − ABlank) × 100%

[4] = 37 °C, nine repeats of three independent experiments, read-out: MIC
[5] = lowest concentration killing 99.9% of inoculum, read-out: MBC
[6] = peptide combined with gentamicin
[7] = peptide combined with levofloxacin
[8] = peptide combined with vancomycin

What does the source list for `CC[C@H](C)[C@H](NC(=O)[C@H](CCCCN)NC(=O)[C@H](CCCCN)NC(=O)CNC(=O)[C@H](C)NC(=O)[C@H](CCCNC(=N)N)NC(=O)[C@H](CC(C)C)NC(=O)[C@@H](NC(=O)[C@H](C)NC(=O)[C@H](CCCNC(=N)N)NC(=O)[C@H](CC(C)C)NC(=O)[C@H](CC(C)C)NC(=O)CN)C(C)C)C(=O)N[C@H](C(=O)N[C@H]1CSSC[C@@H](C(=O)O)NC(=O)[C@H](CCCNC(=N)N)NC(=O)CNC(=O)[C@H](CO)NC(=O)[C@H](CC(C)C)NC(=O)CNC1=O)C(C)C` [Peptide 2170-2R] (H-GLLRAVLRAGKKIVCGLSGRC-OH; disulfide 15-21)?
MIC (S. aureus (ATCC 6538); [4]): 4 µM (≈ 8.67 µg/mL); MBC (S. aureus (ATCC 6538); [5]): 8 µM (≈ 17.3 µg/mL); MIC (MRSA (NCTC 12493); 37 °C, nine repeats of three independent experiments): 16 µM (≈ 34.7 µg/mL); MBC (MRSA (NCTC 12493); lowest concentration killing 99.9% of inoculum): 16 µM (≈ 34.7 µg/mL); MIC (A. baumannii (BAA 747); [4]): 4 µM (≈ 8.67 µg/mL); MBC (A. baumannii (BAA 747); [5]): 8 µM (≈ 17.3 µg/mL); FICI (A. baumannii BAA 747; peptide combined with cefepime): 1.5; FICI (A. baumannii BAA 747; [6]): 0.25; FICI (A. baumannii BAA 747; [7]): >4; FICI (A. baumannii BAA 747; [8]): 0.625; FICI (E. coli ATCC 8739; peptide combined with cefepime): 0.5312; FICI (E. coli ATCC 8739; [6]): 0.125; FICI (E. coli ATCC 8739; [7]): 0.375; FICI (E. coli ATCC 8739; [8]): >4; FICI (E. faecalis NCTC 12697; peptide combined with cefepime): 0.1562; FICI (E. faecalis NCTC 12697; [6]): 0.625; FICI (E. faecalis NCTC 12697; [7]): 0.625; FICI (E. faecalis NCTC 12697; [8]): 0.625; FICI (K. pneumoniae ATCC 43816; peptide combined with cefepime): 0.1875; FICI (K. pneumoniae ATCC 43816; [6]): 0.1562; FICI (K. pneumoniae ATCC 43816; [7]): 1; FICI (K. pneumoniae ATCC 43816; [8]): 1.125; FICI (MRSA NCTC 12493; peptide combined with cefepime): 0.75; FICI (MRSA NCTC 12493; [6]): 0.375; FICI (MRSA NCTC 12493; [7]): 1.125; FICI (MRSA NCTC 12493; [8]): 0.625; FICI ([1]; peptide combined with cefepime): 0.5; FICI [1, 6]: 0.5; FICI [1, 7]: 0.625; FICI [1, 8]: 1.125; FICI (S. aureus ATCC 6538; peptide combined with cefepime): 1; FICI (S. aureus ATCC 6538; [6]): 1; FICI (S. aureus ATCC 6538; [7]): 0.625; FICI (S. aureus ATCC 6538; [8]): 0.625; Biofilm FICI ([2]; peptide combined with cefepime): 0.5; Biofilm FICI [2, 6]: 1; Biofilm FICI ([3]; peptide combined with cefepime): 0.625; Biofilm FICI [3, 6]: 0.75; HC10 (horse red blood cells): >256 µM
